Source: patent publication US20240252670A1, “ANTIBODY DRUG CONJUGATE, PREPARATION METHOD THEREFOR AND APPLICATION THEREOF” (TSINGHUA UNIVERSITY, priority 2021, published 2024)

Legend:
B16 cells = assay: Internalization of pHrodo red labeled anti-PD-L1 THIOMAB in cancer cells (IncuCyte); type: cell-based, mouse; settings: 24 h, pHrodo red labeled antibody, control 98.53
Procedure: After MC38 and B16 cells were treated for 24 hours with anti-PD-L1 THIOMAB labeled with pHrodo™ red dye, A. high-definition phase images, red fluorescence images and combined images of cells were collected by using an IncuCyte® viable cell system; B. a total red object integrated intensity histogram was obtained by analysis using IncuCyte® software, wherein the logarithm of 10 was taken for the ordinate data. Student's t test was used to compare significant differences between the groups, and p<0.0001 is represented by ****.
The pHrodo™ red dye is known to be a pH sensitive fluorescent dye, which rapidly increases in molecular fluorescence intensity when the surrounding environment becomes acidic (Lehrman et al., 2018). When the dye was internalized into the cells along with the antigen-antibody complex, the pH of the environment around the dye was reduced to acidity, thereby producing an observable fluorescence signal. This property allowed the internalization process of the antibody to be monitored by using the pHrodo™ red dye. Through the IncuCyte® viable cell analysis system, the inventors could perform image-based monitoring and quantitative analysis on the internalization process of the anti-PD-L1 antibody labeled with the pHrodo™ red dye. […]

MC38 tumor = assay: Anti-tumor activity and survival in MC38 mouse tumor model; type: in vivo; settings: MC38 mice, i.p.; antibody drugs 150 μg per mouse, D18 25 μg per mouse; schedule Table 1
Source text: A. Treatment with ADC HE-S2, single administration of anti-PD-L1 antibody, D18, or anti-PD-L1 THIOMAB, and anti-PD-L1 antibody/D18 combined administration for inhibitory activity against mouse MC38 tumor growth. B. Whole animal survival study. The ordinate of the curve represents the percentage of tumor-bearing mice that remained alive after different days, and the abscissa thereof represents the number of experimental days. C. Treatment with ADC HE-S2, single administration of anti-PD-L1 antibody, D18, or anti-PD-L1 THIOMAB, and anti-PD-L1 antibody/D18 combined administration for inhibitory activity against mouse MC38 tumor growth. Student's t test was used to compare significant differences between the groups, and p<0.001 is represented by ***.
To verify the anti-cancer activity of ADC HE-S2, the inventors first made a mouse model with MC38. After the tumor was loaded, a visible tumor could be observed on the mouse surface for about one week. When the mean tumor tissue volume of the mice reached 100 mm^3, the mice were randomly grouped as follows according to the final type of drug administered: IgG isotype control antibody group (abbreviated as IgG), anti-PD-L1 antibody group (anti-PD-L1), anti-PD-L1 THIOMAB group (Thiomab), D18 group (D18), D18/anti-PD-L1 antibody combination treatment group (anti-PD-L1 & D18), and ADC HE-S2 group (ADC HE-S2), with 7-8 mice per group. The IgG isotype control antibody group, the anti-PD-L1 antibody (i.e., avelumab as described in Example 2) group, and the anti-PD-L1 THIOMAB (i.e., mutant antibody prepared in Example 2) group were administered twice a week via intraperitoneal injection of 150 μg per mouse for each time. The D18 group was administered twice a week via intraperitoneal injection of 25 μg per mouse for each time. In the D18/anti-PD-L1 antibody combination treatment group, the anti-PD-L1 antibody was dosed twice a week, 150 μg per mouse for each time; the D18 was dosed […], 25 μg per mouse for each time; in the ADC HE-S2 group, ADC HE-S2 was dosed once a week via intraperitoneal injection of 150 μg per mouse for each time; the anti-PD-L1 antibody was dosed once a week, staggered from the administration of the ADC, via intraperitoneal injection of 150 μg per mouse for each time.
Dosage: Antibody drugs, administered 150 μg per mouse for each time, and D18, administered 25 μg per mouse for each time. - means no administration on the day. * Only mice with MC38 tumor model were allowed to be administered until the 24th day, and mice with B16 tumor model were no longer administered after the 21st day.

[1] = system: wild-type DC 2.4 cells and Cd274 knockout DC 2.4 cells; assay: Internalization and selectivity in DC cells, IncuCyte intensity-time curves with FBS or mouse serum blocking; type: cell-based
Procedure: The total red object integrated intensity-time variation curves for anti-PD-L1 THIOMAB labeled with pHrodo™ red dye in the wild-type DC 2.4 cell line and the Cd274 knockout DC 2.4 cell line. […] After addition of labeled anti-PD-L1 antibody, incubation was performed for 30 minutes at 4° C. to allow complete binding of antigen and antibody. The internalization of the antibodies was then analyzed by using the IncuCyte® viable cell system. A. Cells were cultured in a culture medium containing 10% FBS. B. Cells were cultured in a culture medium containing 10% mouse serum. C. After 6 hours, high-definition phase images, red fluorescence images and combined images of DC 2.4 cells were collected by using the IncuCyte® viable cell system. Student's t test was used to compare significant differences between the groups, and p<0.0001 is represented by ****.
To verify this hypothesis, the inventors used 10% mouse serum and 10% FBS as blocking agents which were added to cell culture media in groups, respectively. Relative to FBS, murine IgG enriched in mouse serum could block Fcγ receptors on the surface of DC 2.4 more effectively, thereby inhibiting the antibody internalization process mediated by Fcγ receptors on DC cells. […]

anti-PD-L1 THIOMAB: mutant avelumab, light chain V205C (SEQ ID NO: 9), heavy chain SEQ ID NO: 4; pHrodo red labeled in internalization tests
total red object integrated intensity (B16 cells): 283613.60 | inhibitory activity against MC38 tumor growth (MC38 tumor): slightly superior to the efficacy of the IgG isotype antibody | fluorescence intensity variation curves, wild-type vs Cd274 knockout DC 2.4 cells ([1]; 10% FBS blocking): very similar fluorescence intensity variation curves | speed of increase in total red object integrated intensity in wild-type DC cells vs Cd274 knockout DC cells ([1]; 10% mouse serum blocking, p<0.0001): significantly higher
